Assay results as given in ChEMBL document CHEMBL1201862, “PubChem BioAssay data set” (2004).
Active and inactive are the calls of the source.

Columns and labels:
Type in all cases: functional
[1] = target: Protein kinase C theta type (Homo sapiens, UniProt Q04759); test: Navigating the Kinome. Panel member name: PRKCQ
[2] = target: Leukocyte tyrosine kinase receptor (Homo sapiens, UniProt P29376); test: Navigating the Kinome. Panel member name: LTK
[3] = target: Calcium/calmodulin-dependent protein kinase type II subunit alpha (Homo sapiens, UniProt Q9UQM7); test: Navigating the Kinome. Panel member name: CAMK2A
[4] = target: Serine/threonine-protein kinase pim-1 (Homo sapiens, UniProt P11309)
Serine/threonine-protein kinase pim-1, sequence (P11309 whole entry): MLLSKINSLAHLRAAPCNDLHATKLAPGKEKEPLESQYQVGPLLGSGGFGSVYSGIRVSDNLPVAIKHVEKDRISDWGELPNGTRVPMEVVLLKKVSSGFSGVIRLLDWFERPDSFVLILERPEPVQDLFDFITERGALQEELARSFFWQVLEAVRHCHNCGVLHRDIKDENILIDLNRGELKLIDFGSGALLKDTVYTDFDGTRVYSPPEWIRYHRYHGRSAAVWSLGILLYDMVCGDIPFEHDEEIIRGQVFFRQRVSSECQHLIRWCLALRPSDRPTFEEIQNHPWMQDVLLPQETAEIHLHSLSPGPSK

[5] = target: T1, Serine/threonine-protein kinase D3 (Homo sapiens, UniProt O94806);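 note: determined within a kinase panel screen, with PRKCN as the panel member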
T1 sequence (O94806 whole entry): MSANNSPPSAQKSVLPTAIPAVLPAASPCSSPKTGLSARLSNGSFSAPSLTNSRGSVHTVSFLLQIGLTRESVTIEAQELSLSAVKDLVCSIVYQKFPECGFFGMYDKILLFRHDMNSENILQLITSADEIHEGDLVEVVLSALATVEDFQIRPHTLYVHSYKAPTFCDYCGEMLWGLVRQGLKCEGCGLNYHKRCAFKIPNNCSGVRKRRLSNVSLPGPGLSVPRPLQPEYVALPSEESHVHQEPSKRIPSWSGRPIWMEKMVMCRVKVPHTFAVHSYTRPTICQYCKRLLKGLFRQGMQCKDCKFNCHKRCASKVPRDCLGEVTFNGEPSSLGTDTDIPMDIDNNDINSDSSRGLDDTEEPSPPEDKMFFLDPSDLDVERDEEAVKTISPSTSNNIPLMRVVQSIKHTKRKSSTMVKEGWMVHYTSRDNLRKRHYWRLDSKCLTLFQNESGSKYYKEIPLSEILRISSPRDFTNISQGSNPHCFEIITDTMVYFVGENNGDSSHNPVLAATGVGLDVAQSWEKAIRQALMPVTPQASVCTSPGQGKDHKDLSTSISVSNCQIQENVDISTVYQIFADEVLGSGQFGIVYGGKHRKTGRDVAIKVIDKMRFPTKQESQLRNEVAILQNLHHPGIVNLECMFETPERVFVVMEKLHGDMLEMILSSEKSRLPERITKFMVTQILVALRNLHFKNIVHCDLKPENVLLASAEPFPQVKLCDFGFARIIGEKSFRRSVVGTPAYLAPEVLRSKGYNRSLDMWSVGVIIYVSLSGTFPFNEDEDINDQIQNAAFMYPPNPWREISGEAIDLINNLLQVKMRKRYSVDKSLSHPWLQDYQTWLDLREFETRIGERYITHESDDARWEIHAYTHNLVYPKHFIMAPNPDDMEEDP

[6] = target: High affinity nerve growth factor receptor (Homo sapiens, UniProt P04629);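 note: NTRK1 tested as one member of a kinome-wide profiling panel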
[7] = target: Glycogen synthase kinase-3 beta (Homo sapiens, UniProt P49841);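 note: value comes from a broad kinome profiling panel, with GSK3B as the panel member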
[8] = target: Cyclin-dependent kinase 9 (Homo sapiens, UniProt P50750);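 note: value from the CDK9 entry of a kinome-spanning kinase panel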
[9] = target: cAMP-dependent protein kinase catalytic subunit alpha (Homo sapiens, UniProt P17612)
[10] = target: Dual specificity mitogen-activated protein kinase kinase 2 (Homo sapiens, UniProt P36507); test: Navigating the Kinome. Panel member name: MAP2K2
[11] = target: Tyrosine-protein kinase receptor TYRO3 (Homo sapiens, UniProt Q06418);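 note: TYRO3 value obtained as one member of a kinome-wide profiling panel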
Tyrosine-protein kinase receptor TYRO3, sequence (Q06418 whole entry, canonical isoform): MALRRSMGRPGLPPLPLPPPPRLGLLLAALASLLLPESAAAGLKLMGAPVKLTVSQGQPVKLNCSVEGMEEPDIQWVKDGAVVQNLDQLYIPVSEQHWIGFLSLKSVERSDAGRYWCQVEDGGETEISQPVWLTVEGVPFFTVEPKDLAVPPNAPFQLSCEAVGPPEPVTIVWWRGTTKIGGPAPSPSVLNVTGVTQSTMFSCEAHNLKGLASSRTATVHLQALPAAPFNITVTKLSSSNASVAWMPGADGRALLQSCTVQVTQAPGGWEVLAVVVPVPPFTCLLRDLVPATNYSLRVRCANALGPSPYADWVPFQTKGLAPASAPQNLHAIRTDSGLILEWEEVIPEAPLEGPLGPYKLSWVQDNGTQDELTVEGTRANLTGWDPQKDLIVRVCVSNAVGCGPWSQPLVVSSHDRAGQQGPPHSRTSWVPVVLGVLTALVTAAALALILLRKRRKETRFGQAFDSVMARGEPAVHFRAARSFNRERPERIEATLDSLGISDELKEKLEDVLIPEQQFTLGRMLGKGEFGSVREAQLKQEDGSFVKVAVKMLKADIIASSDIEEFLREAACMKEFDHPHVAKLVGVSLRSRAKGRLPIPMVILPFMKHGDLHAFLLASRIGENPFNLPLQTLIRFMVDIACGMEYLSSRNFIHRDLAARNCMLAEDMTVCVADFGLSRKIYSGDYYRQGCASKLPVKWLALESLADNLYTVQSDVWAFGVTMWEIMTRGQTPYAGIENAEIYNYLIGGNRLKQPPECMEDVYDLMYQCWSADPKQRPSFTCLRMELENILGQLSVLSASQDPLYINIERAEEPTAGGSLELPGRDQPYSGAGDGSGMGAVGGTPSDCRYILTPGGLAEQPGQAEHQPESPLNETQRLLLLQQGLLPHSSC

[12] = target: Casein kinase I isoform alpha (Homo sapiens, UniProt P48729)
[13] = target: Serine/threonine-protein kinase TBK1 (Homo sapiens, UniProt Q9UHD2); test: Navigating the Kinome. Panel member name: TBK1
[14] = target: Cyclin-dependent kinase 7 (Homo sapiens, UniProt P50613);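 note: value comes from a kinome-wide kinase profiling panel in which CDK7 is one member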
[15] = target: Macrophage-stimulating protein receptor (Homo sapiens, UniProt Q04912); test: Navigating the Kinome. Panel member name: MST1R
[16] = target: 5'-AMP-activated protein kinase catalytic subunit alpha-1 (Homo sapiens, UniProt Q13131)
[17] = target: Fibroblast growth factor receptor 1 (Homo sapiens, UniProt P11362)
[18] = target: Dual specificity protein kinase CLK2 (Homo sapiens, UniProt P49760)
[19] = target: Inhibitor of nuclear factor kappa-B kinase subunit epsilon (Homo sapiens, UniProt Q14164); test: Navigating the Kinome. Panel member name: IKBKE
[20] = target: Mitogen-activated protein kinase 9 (Homo sapiens, UniProt P45984);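 note: value from a kinome panel profiling assay, MAPK9 panel entry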
Activated CDC42 kinase 1 = Activated CDC42 kinase 1 (Homo sapiens, UniProt Q07912); test: Navigating the Kinome. Panel member name: ACK1
Activated CDC42 kinase 1, sequence (Q07912 whole entry): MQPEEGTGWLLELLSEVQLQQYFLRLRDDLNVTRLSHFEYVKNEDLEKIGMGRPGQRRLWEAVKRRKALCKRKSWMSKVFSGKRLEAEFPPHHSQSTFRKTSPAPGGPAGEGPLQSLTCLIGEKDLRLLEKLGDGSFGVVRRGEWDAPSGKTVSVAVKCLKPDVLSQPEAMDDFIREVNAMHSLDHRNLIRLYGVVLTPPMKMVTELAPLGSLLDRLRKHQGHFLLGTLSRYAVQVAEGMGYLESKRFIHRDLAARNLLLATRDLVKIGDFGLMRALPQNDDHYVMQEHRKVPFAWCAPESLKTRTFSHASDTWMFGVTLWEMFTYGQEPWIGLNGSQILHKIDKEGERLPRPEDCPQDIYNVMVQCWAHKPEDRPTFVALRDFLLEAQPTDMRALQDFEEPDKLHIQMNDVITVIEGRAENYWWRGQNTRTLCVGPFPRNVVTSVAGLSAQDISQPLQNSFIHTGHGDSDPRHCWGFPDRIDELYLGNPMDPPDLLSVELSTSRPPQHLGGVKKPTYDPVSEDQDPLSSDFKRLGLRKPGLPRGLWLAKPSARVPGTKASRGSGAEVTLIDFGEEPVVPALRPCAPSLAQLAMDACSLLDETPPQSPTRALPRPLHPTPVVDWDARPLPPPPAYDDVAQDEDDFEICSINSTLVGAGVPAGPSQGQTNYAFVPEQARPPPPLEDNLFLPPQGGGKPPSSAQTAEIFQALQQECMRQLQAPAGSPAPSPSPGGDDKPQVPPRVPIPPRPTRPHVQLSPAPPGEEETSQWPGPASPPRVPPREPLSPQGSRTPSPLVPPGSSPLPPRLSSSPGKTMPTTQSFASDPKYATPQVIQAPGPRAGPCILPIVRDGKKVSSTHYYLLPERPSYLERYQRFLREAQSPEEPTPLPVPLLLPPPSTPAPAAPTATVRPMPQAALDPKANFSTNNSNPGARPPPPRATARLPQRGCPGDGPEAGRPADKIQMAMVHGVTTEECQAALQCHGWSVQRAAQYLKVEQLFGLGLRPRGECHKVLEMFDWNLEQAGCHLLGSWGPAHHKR

Aurora kinase A = Aurora kinase A (Homo sapiens, UniProt O14965);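 note: value from the Navigating the Kinome kinase panel profiling, panel entry STK6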
[21] = target: Mitogen-activated protein kinase kinase kinase kinase 2 (Homo sapiens, UniProt Q12851);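 note: measured as one member of a kinome-wide kinase panel, with MAP4K2 as the panel entry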
[22] = target: Mitogen-activated protein kinase kinase kinase kinase 4 (Homo sapiens, UniProt O95819)
Mitogen-activated protein kinase kinase kinase kinase 4, sequence (O95819 whole entry): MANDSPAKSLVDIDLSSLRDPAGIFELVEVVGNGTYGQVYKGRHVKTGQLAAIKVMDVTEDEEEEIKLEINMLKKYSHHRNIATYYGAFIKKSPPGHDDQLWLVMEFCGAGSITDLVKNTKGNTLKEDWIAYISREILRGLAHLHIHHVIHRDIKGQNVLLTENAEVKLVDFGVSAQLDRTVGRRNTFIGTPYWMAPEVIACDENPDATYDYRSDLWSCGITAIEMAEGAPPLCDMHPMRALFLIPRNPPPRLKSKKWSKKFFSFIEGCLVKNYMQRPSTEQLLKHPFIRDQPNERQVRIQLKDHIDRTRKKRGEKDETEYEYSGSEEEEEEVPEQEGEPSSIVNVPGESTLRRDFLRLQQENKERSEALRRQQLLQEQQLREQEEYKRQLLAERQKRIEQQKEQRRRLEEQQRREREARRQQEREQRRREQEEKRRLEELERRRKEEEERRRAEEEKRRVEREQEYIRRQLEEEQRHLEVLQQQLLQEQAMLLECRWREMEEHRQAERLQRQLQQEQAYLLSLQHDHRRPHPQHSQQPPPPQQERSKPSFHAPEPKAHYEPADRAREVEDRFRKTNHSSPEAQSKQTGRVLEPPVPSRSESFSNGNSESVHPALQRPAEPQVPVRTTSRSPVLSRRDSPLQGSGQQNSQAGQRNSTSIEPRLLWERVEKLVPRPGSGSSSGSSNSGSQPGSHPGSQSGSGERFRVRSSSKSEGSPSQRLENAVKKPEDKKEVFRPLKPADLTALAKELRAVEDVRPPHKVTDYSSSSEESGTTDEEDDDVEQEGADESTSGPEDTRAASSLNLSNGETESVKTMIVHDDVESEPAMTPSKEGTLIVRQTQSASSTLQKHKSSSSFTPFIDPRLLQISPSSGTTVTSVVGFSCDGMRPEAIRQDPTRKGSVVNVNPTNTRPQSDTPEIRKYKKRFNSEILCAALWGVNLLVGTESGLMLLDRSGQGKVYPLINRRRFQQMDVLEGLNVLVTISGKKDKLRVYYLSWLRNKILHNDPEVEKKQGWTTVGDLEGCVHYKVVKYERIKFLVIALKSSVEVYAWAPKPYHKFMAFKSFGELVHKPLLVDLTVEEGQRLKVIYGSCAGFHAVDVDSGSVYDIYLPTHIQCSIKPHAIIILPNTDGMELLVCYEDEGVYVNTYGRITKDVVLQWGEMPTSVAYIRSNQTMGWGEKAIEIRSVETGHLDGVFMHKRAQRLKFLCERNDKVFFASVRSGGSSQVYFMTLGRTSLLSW

[23] = target: Mitogen-activated protein kinase 8 (Homo sapiens, UniProt P45983);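 note: value comes from one member of a kinome-wide kinase profiling panel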
Mitogen-activated protein kinase 8, sequence (P45983 whole entry): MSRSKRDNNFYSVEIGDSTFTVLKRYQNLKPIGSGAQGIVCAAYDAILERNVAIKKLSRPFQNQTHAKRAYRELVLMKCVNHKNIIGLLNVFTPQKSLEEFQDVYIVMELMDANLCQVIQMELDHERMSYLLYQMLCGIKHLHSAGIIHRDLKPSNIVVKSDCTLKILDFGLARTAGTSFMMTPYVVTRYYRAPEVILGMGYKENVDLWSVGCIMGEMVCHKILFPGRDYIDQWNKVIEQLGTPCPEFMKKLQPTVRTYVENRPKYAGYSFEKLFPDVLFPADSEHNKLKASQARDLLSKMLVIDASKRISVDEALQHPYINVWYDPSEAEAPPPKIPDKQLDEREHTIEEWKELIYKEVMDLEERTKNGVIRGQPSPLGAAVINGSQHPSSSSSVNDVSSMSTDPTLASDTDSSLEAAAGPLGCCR

[24] = target: Tyrosine-protein kinase JAK3 (Homo sapiens, UniProt P52333)
[25] = target: Leucine-rich repeat serine/threonine-protein kinase 2 (Homo sapiens, UniProt Q5S007);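 note: value from a broad kinome-wide panel profiling study in which LRRK2 was one of the kinases tested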
[26] = target: Dual specificity tyrosine-phosphorylation-regulated kinase 1A (Homo sapiens, UniProt Q13627);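 note: measured against DYRK1A as one member of a broad kinome profiling panel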
[27] = target: Cyclin-dependent kinase 5 (Homo sapiens, UniProt Q00535);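 note: CDK5 measured as one member of a kinase profiling panel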
Cyclin-dependent kinase 5, sequence (Q00535 whole entry): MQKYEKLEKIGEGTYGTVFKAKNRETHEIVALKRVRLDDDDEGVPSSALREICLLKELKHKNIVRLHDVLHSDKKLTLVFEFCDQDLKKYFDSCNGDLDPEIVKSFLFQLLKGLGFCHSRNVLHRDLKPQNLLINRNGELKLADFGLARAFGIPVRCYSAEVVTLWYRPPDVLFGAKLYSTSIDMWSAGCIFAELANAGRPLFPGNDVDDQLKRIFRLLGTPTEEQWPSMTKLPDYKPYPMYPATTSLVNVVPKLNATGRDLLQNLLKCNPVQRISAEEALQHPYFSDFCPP

[28] = target: Dual specificity tyrosine-phosphorylation-regulated kinase 1B (Homo sapiens, UniProt Q9Y463); test: Navigating the Kinome. Panel member name: DYRK1B
Dual specificity tyrosine-phosphorylation-regulated kinase 1B, sequence (Q9Y463 whole entry): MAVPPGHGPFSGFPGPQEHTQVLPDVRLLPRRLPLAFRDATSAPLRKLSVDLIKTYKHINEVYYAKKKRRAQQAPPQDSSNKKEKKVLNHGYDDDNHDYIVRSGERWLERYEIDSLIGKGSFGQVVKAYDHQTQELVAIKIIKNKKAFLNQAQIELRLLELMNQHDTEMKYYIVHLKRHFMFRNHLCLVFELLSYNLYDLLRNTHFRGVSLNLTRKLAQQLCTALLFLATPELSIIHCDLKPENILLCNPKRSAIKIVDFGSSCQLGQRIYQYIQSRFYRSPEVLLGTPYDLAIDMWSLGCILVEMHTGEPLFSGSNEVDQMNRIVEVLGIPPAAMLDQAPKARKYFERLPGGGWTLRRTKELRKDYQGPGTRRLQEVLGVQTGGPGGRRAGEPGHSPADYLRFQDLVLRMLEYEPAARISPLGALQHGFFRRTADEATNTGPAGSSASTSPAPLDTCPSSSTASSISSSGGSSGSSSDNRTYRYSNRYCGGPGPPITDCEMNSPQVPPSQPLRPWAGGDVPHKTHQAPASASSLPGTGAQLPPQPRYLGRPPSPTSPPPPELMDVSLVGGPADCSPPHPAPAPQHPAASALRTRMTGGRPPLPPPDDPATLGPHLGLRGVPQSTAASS

[29] = target: G protein-coupled receptor kinase 5 (Homo sapiens, UniProt P34947); test: Navigating the Kinome. Panel member name: GPRK5
[30] = target: Vascular endothelial growth factor receptor 1 (Homo sapiens, UniProt P17948);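 note: measured within a kinome-wide profiling panel, FLT1 as the panel member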
[31] = target: Tyrosine-protein kinase Fyn (Homo sapiens, UniProt P06241)
[32] = target: Serine/threonine-protein kinase TAO1 (Homo sapiens, UniProt Q7L7X3)
[33] = target: Vascular endothelial growth factor receptor 2 (Homo sapiens, UniProt P35968)

Ki [1]	Ki [2]	Ki [3]	Ki [4]	Ki [5]	Ki [6]	Ki [7]	Ki [8]	Ki [9]	Ki [10]	Ki [11]	Ki [12]	Ki [13]	Ki [14]	Ki [15]	Ki [16]	Ki [17]	Ki [18]	Ki [19]	Ki [20]	SMILES	also measured
0.631 µM (active)	> 2.51 µM (inactive)	> 7.94 µM (inactive)	> 6.31 µM (inactive)	> 3.98 µM (inactive)	> 3.16 µM (inactive)	1.58 µM (active)	> 1.58 µM (inactive)	0.126 µM (active)	> 3.98 µM (inactive)	> 3.16 µM (inactive)	> 3.98 µM (inactive)	> 3.16 µM (inactive)	> 3.98 µM (inactive)	0.398 µM (active)	> 3.16 µM (inactive)	> 3.98 µM (inactive)	> 3.98 µM (inactive)	> 3.16 µM (inactive)	> 3.98 µM (inactive)	COc1cccc(C(C)NC(=O)c2cnc(-c3ccncc3)nc2)c1 (stereo not given)	Ki (Activated CDC42 kinase 1): > 3.98 µM (inactive); Ki (Aurora kinase A): > 1.58 µM (inactive); Ki [21]: > 2.51 µM (inactive); Ki [22]: > 5.01 µM (inactive); Ki [23]: > 5.01 µM (inactive); Ki [24]: > 5.01 µM (inactive); Ki [25]: > 2.51 µM (inactive); Ki [26]: > 2 µM (inactive); Ki [27]: > 3.16 µM (inactive); Ki [28]: > 2.51 µM (inactive); Ki [29]: > 3.98 µM (inactive); Ki [30]: > 3.98 µM (inactive); Ki [31]: > 6.31 µM (inactive); Ki [32]: > 6.31 µM (inactive); Ki [33]: > 2.51 µM (inactive)
2 µM (active)	> 2.51 µM (inactive)	> 7.94 µM (inactive)	> 6.31 µM (inactive)	> 3.98 µM (inactive)	> 3.16 µM (inactive)	2.51 µM (active)	> 1.58 µM (inactive)	1 µM (active)	> 3.98 µM (inactive)	> 3.16 µM (inactive)	> 3.98 µM (inactive)	> 3.16 µM (inactive)	> 3.98 µM (inactive)	> 3.98 µM (inactive)	> 3.16 µM (inactive)	> 3.98 µM (inactive)	> 3.98 µM (inactive)	> 3.16 µM (inactive)	> 3.98 µM (inactive)	CCCOc1cccc(C(C)NC(=O)c2ccc(-c3ccncc3F)cc2)c1 (stereo not given)	Ki (Activated CDC42 kinase 1): > 3.98 µM (inactive); Ki (Aurora kinase A): > 1.58 µM (inactive); Ki [21]: > 2.51 µM (inactive); Ki [22]: > 5.01 µM (inactive); Ki [23]: > 5.01 µM (inactive); Ki [24]: > 5.01 µM (inactive); Ki [25]: > 2.51 µM (inactive); Ki [26]: > 2 µM (inactive); Ki [27]: > 3.16 µM (inactive); Ki [28]: > 2.51 µM (inactive); Ki [29]: > 3.98 µM (inactive); Ki [30]: > 3.98 µM (inactive); Ki [31]: > 6.31 µM (inactive); Ki [32]: > 6.31 µM (inactive); Ki [33]: > 2.51 µM (inactive)
